# “Also recorded” adds a separate entry of the source.
# Legend:
# H9c2 rat cardiomyocytes [1] = assay: BNP mRNA levels in cells by qRT-PCR; type: cell-based; conditions: 1 μM DOX 2 hr, normalized by β-actin mRNA
# Experimental: (§1) FIGS. 1A and 1B show the effect of doxorubicin (DOX) on H9c2 rat cardiomyocytes. Cells were treated for 2 hr with media containing 1 μM DOX, washed and kept for 2, 6 and 24 hr in media without DOX. BNP mRNA levels in H9c2 cells were assessed by qRT-PCR (A) and cell media was collected and extracted with ethyl acetate for 14,15-DHET analyses using ELISA kit (Detroit R&D) (B). *p<0.05;
# Normalized BNP levels were decreased 6 hr and 24 hr after 2 hr of DOX treatment (p<0.05) (FIG. 1A) when cardiomyocyte hypertrophy occurred ([…]).
# BNP mRNA was assessed in rat H9c2 cells. […] Results were normalized using β-actin mRNA levels using a rat specific primer (13). Our results have shown that BNP levels were decreased 6 and 24 hr after 2 hr of DOX treatment (FIG. 1A) when cell hypertrophy was detected (FIG. 2).
# [2] = test system: plasma of breast cancer patients; assay: Plasma troponin I (TnI) in breast cancer patients after DOX treatment; type: in vivo, human
# H9c2 rat cardiomyocytes [3] = assay: 14,15-DHET in cell media by ELISA; type: cell-based; conditions: 1 μM DOX 2 hr
# Experimental: as §1
# H9c2 cardiomyocytes were treated for 2 hr with and without 1 μM DOX. Levels of 14,15-DHET in cell media increased ˜3-fold (p<0.05) after a 2 hr recovery period prior to detection of cellular hypertrophy at 6 hr and 24 hr recovery periods.
# Levels of 14,15-DHET in cardiomyocyte (H9c2 cell) media were assessed by the Detroit R&D 14,15-DHET ELISA. Media, 2 ml, was extracted with 2 ml […]. and levels of 14,15-DHET increased after 2 hr, 6 hr and 24 hr following 2 hr DOX treatment (2 hr, 6 hr and 24 hr recovery) (FIG. 1B).
# [4] = DOX 3 months followed by one-year trastuzumab, HER2-positive breast cancer patients, ref (5); cited from earlier work
# rat serum = assay: Serum fatty acid biomarkers by ELISA in DOX-treated female rats; type: in vivo; conditions: DOX 3 mg/kg/week 2 weeks
# Experimental: To verify that 14,15-DHET levels can be used as an early biomarker for prediction of DOX-dependent cardiotoxicity as previously found in the rat cardiomyocyte study (FIG. 1 and FIG. 2), levels of 14,15-DHET (sEH metabolite) in serum samples from control and DOX-treated rats with and without 2-week recovery were measured using a 14,15-DHET ELISA kit (Detroit R&D).
# Levels of 20-HETE (CYP4A/4F-dependent hypertension biomarker) and 8-isoprostane (non-enzymatic oxidative stress biomarker) in rat serum samples were also measured using 20-HETE and 8-isoprostane ELISA kits, respectively, from Detroit R&D.
# Biologically active fatty acids were extracted with ethyl acetate from 75 μl of serum samples (n=4) from control and DOX-treated animals with and without 2 weeks recovery. […] However, two weeks after the second injection (2 weeks recovery), when cardiotoxicity was still not detected, levels of 14,15-DHET (a metabolite of soluble epoxide hydrolase) and 8-isoprostane (non-enzymatic oxidative stress biomarker) were increased compared to the control group (FIG. 3B and FIG. 3D). No changes in levels of 20-HETE in rat serum samples between the two groups were observed (FIG. 3C).
# rat heart tissue [5] = assay: Histological analysis of heart tissue of DOX-treated rats; type: in vivo; conditions: DOX 3 mg/kg/week 2 weeks, 2-week recovery, 40× magnification
# Experimental: Heart tissues were dehydrated, imbedded in paraffin and sliced. Slices were incubated in Mayer's hematoxylin reagent (ScyTek) for 5 min and covered with bluing reagent (ScyTek) for 15 seconds and eosin Y (ScyTek) solution for 3 minutes. Images of the rat cardiomyocyte were taken using a Zeiss Axiovert 200 microscope with RT Insight camera and SPOT Advanced Imaging software in 40× magnification at the Microscopy and Imaging Facility at Wayne State University.
# Presence of vacuolization in heart tissue, a sign of cardiotoxicity (14), was not observed at 40× magnification.
# [6] = test system: soluble epoxide hydrolase (sEH) in H9c2 cells; assay: sEH protein expression by Western blot; type: cell-based, rat; conditions: 1 μM DOX 2 hr, cells harvested at 6 hr; normalized by beta-actin
# Experimental: FIGS. 5A and 5B show the effect of doxorubicin (DOX) on soluble epoxide hydrolase (sEH) expression in rat H9c2 cardiomyocytes cells (A) and NAG-1 (MIC-1, GDF-15), a plasma cardiotoxicity biomarker (B). Panel A, cells harvested at 6 hr with (Lane 2) and without (Lane 1) treatment of doxorubicin (DOX) (2 hr, final concentration 1 μM). Protein expression of sEH, GAPDH and beta-actin expressed in the cells were assessed by Western blot analysis. Expression levels of sEH were normalized by beta-actin protein levels and Panel B, Western blot analysis carried out under non-reducing/non-denaturing condition for NAG-1 protein in plasma samples obtained from healthy subjects (pooled plasma sample, control) and 3 breast cancer patients with cardiovascular disease (cardiotoxicity, Innovative Research);
# Increased sEH protein levels after DOX treatment was detected by Western blot analysis using sEH antibody (Detroit R&D) (FIG. 5A).
# [7] = Cardiotoxicity / LVEF in breast cancer patients after DOX treatment; type: in vivo, human
# Description: Chemotherapy-associated cardiotoxicity is defined as either a cardiomyopathy with a reduction of left ventricular ejection fraction (LVEF) ≥5% to <55% with symptoms of heart failure or an asymptomatic reduction of LVEF ≥10% to <55% by the Cardiac Review and Evaluation Committee (CREC) (7).
# rat heart tissue [8] = assay: Heart tissue mRNA biomarkers by RT-PCR in DOX-treated female rats; conditions: DOX 3 mg/kg/week 2 weeks, no recovery, normalized by β-actin mRNA
# Experimental: Rats were euthanized at 48 hr (no recovery) or after 2 weeks (2 weeks recovery) following injection of the rats for 2 weeks with saline (control) or DOX (3 mg/kg/week). BNP mRNA levels in heart were assessed by qRT-PCR and results were normalized by β-actin mRNA (A). […] Results expressed as mean±SD (n=4-6). *p<0.05 and **p<0.01;
# A study on serum biomarkers to detect risk of chemotherapy-induced cardiotoxicity was carried out using female rats treated with and without DOX (3 mg/kg/week, i.v. for 2 weeks) (no recovery group: Control and DOX, n=6/group) and with a 2-week recovery period (2 weeks recovery group: Control and DOX, n=6/group).
# BNP mRNA levels in heart tissues were measured by reverse-transcription/real time PCR (Sybr green) and normalized using β-actin mRNA levels (13).
# Heart total RNA was extracted using the TRIzol method, cDNA was synthesized using High Capacity cDNA Reverse Transcript Kit (Applied Biosystems). Levels of mRNA in cardiomyocytes were measured by real time PCR (Sybr green) using rat specific primers.
# [9] = test system: plasma of breast cancer patients; assay: Plasma 14,15-DHET by ELISA in breast cancer patients before and after DOX
# Experimental: Plasma samples were extracted using ethyl acetate and levels of 14,15-DHET were assessed in triplicate for ELISA.
# A blind test for the early biomarker, 14,15-DHET (metabolite of sEH), was carried out with plasma samples from 5 breast cancer patients obtained before and after 3 months of DOX treatment (FIG. 4).
# Fatty acids in the plasma samples (50 μl/sample) were extracted with ethyl acetate and levels of 14,15-DHET were assessed in triplicate samples using an ELISA kit from Detroit R&D.
# Plasma samples from 5 breast cancer patients obtained before (n=5) and after (n=5) 3 months of DOX treatment (60 mg/m^2/injection for 4 injections).
# Biologically active fatty acids in the plasma samples (50 μl/sample) were extracted with ethyl acetate, dried and re-suspended with 30 μl of DMF followed by dilution buffer to 900 μl. Levels of 14,15-DHET were assessed in triplicate using an ELISA kit from Detroit R&D (100 μl/well).
structure (smiles),measurement,setting,value
"COc1cccc2c1C(=O)c1c(O)c3c(c(O)c1C2=O)C[C@@](O)(C(=O)CO)C[C@@H]3O[C@H]1C[C@H](N)[C@H](O)[C@H](C)O1 [DOX, doxorubicin]",increase of BNP mRNA,H9c2 rat cardiomyocytes [1]; 2 hr recovery,~4 fold
same,BNP mRNA levels,H9c2 rat cardiomyocytes [1]; 6 hr and 24 hr recovery,decreased; also recorded: lower than control
same,plasma troponin I (TnI) levels,"[2]; Patient #3, 3 months after 3 months of DOX treatment",increased
same,plasma troponin I (TnI) levels,"[2]; Patient #4, 3 months after 3 months of DOX treatment",decreased
same,plasma troponin I (TnI) levels,"[2]; Patients #1, #2 and #5 (no cardiotoxicity), 3 months after 3 months of DOX treatment",increased
same,"14,15-DHET levels in cell media",H9c2 rat cardiomyocytes [3]; 6 and 24 hr recovery,remained elevated; also recorded: increased
same,"increase of 14,15-DHET in cell media",H9c2 rat cardiomyocytes [3]; 2 hr recovery,~3 fold
same,cardiac dysfunction including symptomatic heart failure (HF),[4],18%
same,Serum 20-HETE,rat serum; 2 weeks recovery,No change
same,Serum 8-Isoprostane,rat serum; no recovery (~48 hr),did not significantly change; also recorded: No change
same,"Serum 14,15-DHET",rat serum; no recovery (~48 hr),did not significantly change; also recorded: No change
same,Serum 20-HETE,rat serum; no recovery (~48 hr),did not significantly change; also recorded: No change
same,vacuolization / heart tissue damage (histology),rat heart tissue [5],no vacuolization or heart tissue damage; also recorded: not observed
same,sEH protein levels,[6],Increased
same,cardiotoxicity detected,"[7]; 5 breast cancer patients, at completion of 3 months of DOX treatment",no cardiotoxicity
same,reduction of LVEF,"[7]; Patient #3, 3 months after 3 months of DOX treatment was completed",~28%
same,reduction of LVEF,"[7]; Patient #4, 3 months after 3 months of DOX treatment was completed",22%
same,reduction of LVEF,"[7]; Patients #3 and #4, 6 months after 3 months of DOX treatment was completed",around 20%
same,reduction of LVEF,"[7]; Patients #3 and #4, at 3 and 6 months after DOX treatment was completed",higher than 20%
same,change of LVEF,"[7]; the other patients (#1, #2, #5), at 3 and 6 months after DOX treatment",no significant changes
same,Heart tissue BNP mRNA,rat heart tissue [8],No change
same,Heart tissue MPO mRNA,rat heart tissue [8],No change
same,Heart tissue S100A9 mRNA,rat heart tissue [8],No change
same,"increase of plasma 14,15-DHET","[9]; Patient #3, after vs before 3 months of DOX treatment",~38%
same,"increase of plasma 14,15-DHET","[9]; Patient #4, after vs before 3 months of DOX treatment",~55%
same,"plasma 14,15-DHET levels","[9]; Patients #2 and #5, after vs before 3 months of DOX treatment",did not significantly increase
